Data published in ChEMBL document CHEMBL1136732, “Discovery of 5-[5-fluoro-2-oxo-1,2- dihydroindol-(3Z)-ylidenemethyl]-2,4- dimethyl-1H-pyrrole-3-carboxylic acid (2-diethylaminoethyl)amide, a novel tyrosine kinase inhibitor targeting vascular endothelial and platelet-derived growth factor receptor tyrosine kinase” (J Med Chem, 2003).
≈ marks a conversion by molar mass, not a printed value.

What was measured:
[1] = target: Vascular endothelial growth factor receptor 2 (Homo sapiens, UniProt P35968)
[2] = target: Epidermal growth factor receptor (Homo sapiens, UniProt P00533)
[3] = In vitro cytotoxicity was determined; conditions: read-out: LD50 (the source's name)
[4] = Solubility in 20 mM buffered solution after shaking for 24 hr at 22 degree celsius at pH 6; assay type: physicochemical
[5] = target: Platelet-derived growth factor receptor beta (Homo sapiens, UniProt P09619)
[6] = Solubility in 20 mM buffered solution after shaking for 24 hr at 22 degree celsius at pH 2; assay type: physicochemical
[7] = target: Fibroblast growth factor receptor 1 (Homo sapiens, UniProt P11362)
Fibroblast growth factor receptor 1, sequence (P11362 whole entry): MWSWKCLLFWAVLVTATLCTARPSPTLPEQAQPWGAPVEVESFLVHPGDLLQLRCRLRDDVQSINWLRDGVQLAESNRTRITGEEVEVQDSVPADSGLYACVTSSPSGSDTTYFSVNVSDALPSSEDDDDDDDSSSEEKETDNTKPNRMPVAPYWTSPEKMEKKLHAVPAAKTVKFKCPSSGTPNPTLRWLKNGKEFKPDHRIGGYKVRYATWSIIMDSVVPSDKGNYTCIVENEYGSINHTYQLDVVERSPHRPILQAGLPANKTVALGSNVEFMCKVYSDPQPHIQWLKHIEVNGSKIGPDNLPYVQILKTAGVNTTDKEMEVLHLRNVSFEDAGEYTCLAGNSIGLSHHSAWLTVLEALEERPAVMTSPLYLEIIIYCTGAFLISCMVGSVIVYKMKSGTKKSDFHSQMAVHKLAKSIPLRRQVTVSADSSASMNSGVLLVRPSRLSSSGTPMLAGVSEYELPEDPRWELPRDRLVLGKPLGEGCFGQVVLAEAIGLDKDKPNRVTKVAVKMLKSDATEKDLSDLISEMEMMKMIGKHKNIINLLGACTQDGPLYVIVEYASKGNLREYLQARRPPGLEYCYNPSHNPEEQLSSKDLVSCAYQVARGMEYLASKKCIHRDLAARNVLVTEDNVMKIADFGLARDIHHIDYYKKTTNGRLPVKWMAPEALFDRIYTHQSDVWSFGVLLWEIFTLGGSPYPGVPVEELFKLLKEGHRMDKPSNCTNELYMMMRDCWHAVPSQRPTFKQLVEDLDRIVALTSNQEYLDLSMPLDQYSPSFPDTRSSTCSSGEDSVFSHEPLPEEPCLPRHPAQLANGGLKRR

Vascular endothelial growth factor receptor 2, sequence (P35968 whole entry): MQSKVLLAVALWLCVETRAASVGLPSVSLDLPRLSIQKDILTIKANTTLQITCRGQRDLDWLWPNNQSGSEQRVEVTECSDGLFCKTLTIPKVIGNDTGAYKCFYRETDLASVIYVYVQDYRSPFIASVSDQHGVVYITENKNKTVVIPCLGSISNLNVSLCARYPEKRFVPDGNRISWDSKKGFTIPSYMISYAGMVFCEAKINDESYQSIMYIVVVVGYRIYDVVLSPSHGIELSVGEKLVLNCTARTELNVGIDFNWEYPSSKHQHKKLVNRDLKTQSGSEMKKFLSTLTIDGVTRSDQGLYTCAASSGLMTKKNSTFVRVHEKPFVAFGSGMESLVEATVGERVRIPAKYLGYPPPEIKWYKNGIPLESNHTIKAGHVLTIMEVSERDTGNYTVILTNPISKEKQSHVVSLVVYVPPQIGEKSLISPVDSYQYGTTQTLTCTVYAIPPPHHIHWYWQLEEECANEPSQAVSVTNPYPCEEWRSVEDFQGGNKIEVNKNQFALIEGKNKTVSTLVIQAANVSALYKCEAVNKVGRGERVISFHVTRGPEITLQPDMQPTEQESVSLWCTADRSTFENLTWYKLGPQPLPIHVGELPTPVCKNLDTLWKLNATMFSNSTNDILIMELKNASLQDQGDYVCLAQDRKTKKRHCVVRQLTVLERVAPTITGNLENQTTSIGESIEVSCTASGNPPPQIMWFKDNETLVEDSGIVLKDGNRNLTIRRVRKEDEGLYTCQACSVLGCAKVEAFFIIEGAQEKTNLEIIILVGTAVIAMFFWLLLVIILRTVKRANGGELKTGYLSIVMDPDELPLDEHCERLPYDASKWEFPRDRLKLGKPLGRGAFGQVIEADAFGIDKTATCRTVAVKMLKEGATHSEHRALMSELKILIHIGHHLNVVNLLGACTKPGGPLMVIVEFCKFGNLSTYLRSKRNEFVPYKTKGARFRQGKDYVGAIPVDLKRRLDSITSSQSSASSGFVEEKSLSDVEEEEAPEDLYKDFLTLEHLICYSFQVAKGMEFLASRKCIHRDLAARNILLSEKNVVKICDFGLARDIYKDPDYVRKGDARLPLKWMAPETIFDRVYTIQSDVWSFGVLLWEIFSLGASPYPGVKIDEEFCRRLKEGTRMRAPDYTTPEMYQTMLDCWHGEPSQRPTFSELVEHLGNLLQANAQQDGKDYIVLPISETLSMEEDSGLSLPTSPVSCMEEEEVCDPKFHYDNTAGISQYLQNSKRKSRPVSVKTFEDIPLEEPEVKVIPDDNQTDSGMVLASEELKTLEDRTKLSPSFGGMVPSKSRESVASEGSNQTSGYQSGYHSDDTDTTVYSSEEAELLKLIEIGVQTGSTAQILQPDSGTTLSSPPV
Epidermal growth factor receptor, sequence (P00533 whole entry): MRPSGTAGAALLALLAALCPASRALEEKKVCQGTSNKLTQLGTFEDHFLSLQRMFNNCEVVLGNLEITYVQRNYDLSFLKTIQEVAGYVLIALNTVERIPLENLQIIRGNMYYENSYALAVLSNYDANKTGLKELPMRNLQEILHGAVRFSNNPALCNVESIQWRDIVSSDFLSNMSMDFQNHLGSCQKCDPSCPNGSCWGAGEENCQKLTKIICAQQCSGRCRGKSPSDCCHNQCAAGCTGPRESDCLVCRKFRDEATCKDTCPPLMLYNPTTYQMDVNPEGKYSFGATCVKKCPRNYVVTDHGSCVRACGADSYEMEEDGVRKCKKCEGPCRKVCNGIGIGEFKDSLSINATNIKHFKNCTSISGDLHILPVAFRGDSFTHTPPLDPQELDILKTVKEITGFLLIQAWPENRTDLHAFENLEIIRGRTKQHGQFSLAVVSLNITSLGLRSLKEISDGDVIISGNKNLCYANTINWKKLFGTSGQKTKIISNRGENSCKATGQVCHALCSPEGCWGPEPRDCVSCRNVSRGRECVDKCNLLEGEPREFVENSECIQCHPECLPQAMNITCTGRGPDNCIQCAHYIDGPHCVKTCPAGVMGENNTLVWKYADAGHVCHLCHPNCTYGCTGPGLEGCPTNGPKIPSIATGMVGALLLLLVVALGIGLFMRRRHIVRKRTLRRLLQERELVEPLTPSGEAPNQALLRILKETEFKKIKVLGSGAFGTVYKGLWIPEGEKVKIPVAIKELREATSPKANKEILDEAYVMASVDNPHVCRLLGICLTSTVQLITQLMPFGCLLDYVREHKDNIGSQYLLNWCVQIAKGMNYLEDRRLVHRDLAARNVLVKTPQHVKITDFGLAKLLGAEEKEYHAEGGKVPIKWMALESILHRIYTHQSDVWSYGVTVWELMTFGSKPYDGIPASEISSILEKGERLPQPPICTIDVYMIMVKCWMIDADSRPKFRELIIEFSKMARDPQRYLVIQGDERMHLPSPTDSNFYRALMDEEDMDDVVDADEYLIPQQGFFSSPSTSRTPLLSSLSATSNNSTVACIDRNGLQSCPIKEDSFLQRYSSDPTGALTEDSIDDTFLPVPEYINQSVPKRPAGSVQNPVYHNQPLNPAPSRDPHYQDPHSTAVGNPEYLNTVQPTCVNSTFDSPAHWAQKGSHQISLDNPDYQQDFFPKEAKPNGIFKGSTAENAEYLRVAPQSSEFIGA
Platelet-derived growth factor receptor beta, sequence (P09619 whole entry): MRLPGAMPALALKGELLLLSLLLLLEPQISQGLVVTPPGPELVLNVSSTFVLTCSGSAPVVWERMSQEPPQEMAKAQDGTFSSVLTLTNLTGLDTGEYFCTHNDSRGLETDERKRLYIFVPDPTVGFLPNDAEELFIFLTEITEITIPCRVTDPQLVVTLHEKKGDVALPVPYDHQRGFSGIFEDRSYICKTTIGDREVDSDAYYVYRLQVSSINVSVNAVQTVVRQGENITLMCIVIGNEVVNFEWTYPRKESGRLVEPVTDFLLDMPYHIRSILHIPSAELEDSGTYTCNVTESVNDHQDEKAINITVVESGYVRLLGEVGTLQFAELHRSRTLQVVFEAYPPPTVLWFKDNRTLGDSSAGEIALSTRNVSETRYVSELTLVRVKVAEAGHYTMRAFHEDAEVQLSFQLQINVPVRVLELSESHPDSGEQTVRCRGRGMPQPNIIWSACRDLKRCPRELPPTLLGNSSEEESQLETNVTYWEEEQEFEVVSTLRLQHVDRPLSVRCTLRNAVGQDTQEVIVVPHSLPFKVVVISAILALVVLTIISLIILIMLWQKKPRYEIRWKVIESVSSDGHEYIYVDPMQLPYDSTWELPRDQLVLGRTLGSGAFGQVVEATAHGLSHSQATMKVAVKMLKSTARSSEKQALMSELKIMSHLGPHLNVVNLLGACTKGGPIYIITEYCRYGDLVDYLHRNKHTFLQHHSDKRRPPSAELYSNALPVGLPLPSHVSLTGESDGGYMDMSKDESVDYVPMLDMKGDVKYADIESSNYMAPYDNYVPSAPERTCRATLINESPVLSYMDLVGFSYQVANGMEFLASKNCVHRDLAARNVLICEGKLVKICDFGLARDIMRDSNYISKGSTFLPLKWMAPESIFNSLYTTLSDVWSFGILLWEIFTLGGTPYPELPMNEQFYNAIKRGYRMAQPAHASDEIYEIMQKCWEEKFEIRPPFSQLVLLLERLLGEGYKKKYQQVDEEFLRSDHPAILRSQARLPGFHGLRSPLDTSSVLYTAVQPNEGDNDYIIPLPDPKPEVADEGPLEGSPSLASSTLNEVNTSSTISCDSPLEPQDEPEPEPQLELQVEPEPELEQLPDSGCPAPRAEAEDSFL

SMILES | IC50 [1] [nM] | IC50 [2] [nM] | CC50 [3] [nM] | solubility thermodynamic at 24 h [4] [µg/mL] | IC50 [5] [nM] | solubility thermodynamic at 24 h [6] [µg/mL] | IC50 [7] [nM]
Cc1[nH]c(/C=C2\C(=O)Nc3ccc(F)cc32)c(C)c1C(=O)NCCN1CCCC1 [TOCERANIB] | 60 | > 20000 | 49000 | 9 (≈ 22.7 µM) | 1 | 3320 (≈ 8370 µM) | 3900
Cc1[nH]c(/C=C2\C(=O)Nc3ccc(F)cc32)c(C)c1C(=O)NCCn1cncn1 | 85 | > 20000 | > 50000 | 6 (≈ 15.2 µM) | 10 | 2 (≈ 5.07 µM) | 17100
Cc1cc(C)c(/C=C2\C(=O)Nc3ccccc32)[nH]1 [SEMAXANIB] |  |  | > 50000 | < 1 |  | < 1 | 
Cc1[nH]c(/C=C2\C(=O)Nc3ccc(F)cc32)c(C)c1C(=O)NCc1ccncc1 | < 160 | > 20000 | > 50000 |  | 1 | 486 (≈ 1240 µM) | 3100
CCN(CC)CCNC(=O)c1c(C)[nH]c(/C=C2\C(=O)Nc3ccc(F)cc32)c1C [SUNITINIB] |  |  | 48900 | 364 (≈ 913 µM) |  | 2580 (≈ 6480 µM) | 
Cc1[nH]c(/C=C2\C(=O)Nc3ccccc32)c(C)c1CCCN1CCN(C)CC1 | 300 | > 20000 | > 50000 |  | 60 |  | 4200
CCN(CC)CCNC(=O)c1c(C)[nH]c(/C=C2\C(=O)Nc3ccc(Br)cc32)c1C | 32 | 10000 | 16300 | 101 (≈ 220 µM) | 5 | 1300 (≈ 2830 µM) | 
Cc1[nH]c(/C=C2\C(=O)Nc3ccc(F)cc32)c(C)c1C(=O)NCCN1CCOCC1 | 90 | > 20000 | > 50000 | 0.3 (≈ 0.727 µM) | 2 | 2940 (≈ 7140 µM) | 2600
Cc1[nH]c(/C=C2\C(=O)Nc3ccccc32)c(C)c1CCC(=O)O [ORANTINIB] |  |  | > 50000 |  |  | < 5 | 
Cc1[nH]c(/C=C2\C(=O)Nc3ccc(F)cc32)c(C)c1C(=O)NCC1CCN(C)CC1 | 25 |  | 38000 | > 250 | 3 | > 250 | 200
CCN(CC)CCNC(=O)c1c(C)[nH]c(/C=C2\C(=O)Nc3ccc(Cl)cc32)c1C [SU-11652] | 27 | > 20000 | 15600 | 186 (≈ 448 µM) | 3 | 3260 (≈ 7850 µM) | 170
CCN(CC)CCNC(=O)c1c(C)[nH]c(/C=C2\C(=O)Nc3ccccc32)c1C | 50 | > 20000 | > 50000 | 511 (≈ 1340 µM) | 17 | 3020 (≈ 7940 µM) | 880
Cc1[nH]c(/C=C2\C(=O)Nc3ccc(F)cc32)c(C)c1C(=O)NCCN(C)C | 80 | > 20000 | 48500 | 75 (≈ 202 µM) | 0.5 | 3010 (≈ 8130 µM) | 1600
